The test system of data set [1] is fascin-deficient singed-mutant neurons. The data set can be described thus: Primary neuron culture neurotoxicity screen, fascin-deficient neurons. The conditions noted are these: 3 days in vitro; for neurotoxic defects: 10 and 50 μM, phase-contrast morphology; for beads-on-a-string (BOS) defect (intra-neurite nodules): singed (sn) mutant larval CNS neurons; for BOS effect in sn-mutant, fascin-deficient neurons relative to wild-type: at each dose; for BOS density versus dose: wild-type and sn-mutant neurons, randomly selected neurons. An excerpt:
Following this enzymatic treatment, the tissue is washed and then mechanically triturated in culture medium to dissociate it into single cells.

The test system of data set [2] is wild-type (OreRC) neurons.
The subject of data set [3] is cultured neurons with mutations in the Drosophila fragile X mental retardation 1 gene (dfmr1). It counts as cell-based. The source says: In this case, the genetic control was designed (Michel et al. (2004). J. Neurosci., 23:5798-5809) to be identical in every possible way, except for the presence or absence of a normal dfmr1 gene.

Molecules are shown by their SMILES. “Also recorded” adds a separate entry of the source.

Here are results for 9 compounds from patent US8785149B2, “In vitro cellular bioassay for neurotoxicity testing” (The Arizona Board of Regents on Behalf of the University of …, priority 2010, dated 2014).

As for `COc1ccc(C[C@H]2NC[C@H](O)[C@H]2OC(C)=O)cc1` [anisomycin], in data set [1], the neurotoxic defects result is “overt neurotoxic defects”.
`CC(C)c1c(C(=O)Nc2ccccc2)c(-c2ccccc2)c(-c2ccc(F)cc2)n1CC[C@@H](O)C[C@@H](O)CC(=O)O` [atorvastatin]: the neurite outgrowth entry in data set [2] was “inhibition of neurite outgrowth”. Besides, in data set [1], the “beads-on-a-string (BOS) defect (intra-neurite nodules)” value (shortened to “beads-on-a-string (BOS) defect”) is listed as “beads-on-a-string (BOS) defect; also recorded: induced”.
Consider `C[C@@H]1C[C@@H]([C@H](O)CC2CC(=O)NC(=O)C2)C(=O)[C@@H](C)C1` [cycloheximide], for which the neurotoxic defects result in data set [1] is recorded as “overt neurotoxic defects”.
On to `CC[C@H](C)C(=O)O[C@H]1C[C@@H](C)C=C2C=C[C@H](C)[C@H](CC[C@@H]3C[C@@H](O)CC(=O)O3)[C@H]21` [lovastatin], for which, in data set [1], the “beads-on-a-string (BOS) defect” value is recorded as “beads-on-a-string (BOS) defect; also recorded: induced”.
Regarding `C[C@@H]1O[C@@H](O[C@H]2C[C@@H](O)[C@]3(CO)[C@H]4[C@H](O)C[C@]5(C)[C@@H](C6=CC(=O)OC6)CC[C@]5(O)[C@@H]4CC[C@]3(O)C2)[C@H](O)[C@H](O)[C@H]1O` [ouabain], the neurotoxic defects entry in data set [1] is on record as “overt neurotoxic defects”.
The same measure, in the same setting: the same measure for `CC(=O)O[C@H]1C(=O)[C@@]2(C)[C@H]([C@H](OC(=O)c3ccccc3)[C@]3(O)C[C@H](OC(=O)[C@H](O)[C@@H](NC(=O)c4ccccc4)c4ccccc4)C(C)=C1C3(C)C)[C@]1(OC(C)=O)CO[C@@H]1C[C@@H]2O` [paclitaxel]: “overt neurotoxic defects”.
Consider `CC[C@H](C)C(=O)O[C@H]1C[C@H](O)C=C2C=C[C@H](C)[C@H](CC[C@@H](O)C[C@@H](O)CC(=O)O)[C@H]21` [pravastatin], for which the “severity of BOS defect in dfmr1-mutant neurons versus control neurons” value in data set [3] is “less severe BOS defect”. In data set [1], the “BOS effect in sn-mutant, fascin-deficient neurons relative to wild-type” value is reported as “enhanced the sensitivity”; the “beads-on-a-string (BOS) defect” value was “beads-on-a-string (BOS) defect; also recorded: induced”; the “BOS density versus dose” value is reported as “increased with dose”.
Consider `CC(C)c1nc(N(C)S(C)(=O)=O)nc(-c2ccc(F)cc2)c1/C=C/[C@@H](O)C[C@@H](O)CC(=O)O` [rosuvastatin], for which, in data set [1], the “BOS effect in sn-mutant, fascin-deficient neurons relative to wild-type” value was “enhanced the sensitivity”; the “beads-on-a-string (BOS) defect” value is “beads-on-a-string (BOS) defect; also recorded: induced”; the “BOS density versus dose” value was “increased with dose”.
In the case of `C[CH2][Hg][S]c1ccccc1C(=O)[O-].[Na+]` [thimerosal], the neurotoxic defects entry in data set [1] is “overt neurotoxic defects”.
